Read-outs that look alike come from different tables or passages of the source.
How the values were obtained:
[1] = test system: HCV replicon-containing cells (Huh7/Clone A); assay: HCV replicon assay; type: cell-based, Hepatitis C virus; details: at 25 μM, 48 hours
From the text: The HCV replicon assay is a cell-culture system that mimics in vivo HCV replication and provides a system to study HCV replication in vitro. It was created by transfecting cloned viral RNA derived from a consensus HCV genomic sequence into human Huh7 hepatoma cells that are semi-permissive for viral RNA production (Lohmann V., Korner F., Koch J.-O., Herian U., Theilmann L. and Bartenschlager R. (1999). Replication of subgenomic Hepatitis C virus RNAs in a hepatoma cell line. Science 285, 110-113 and Blight K. J., Kolykhalov A. A. and Rice C. M. (2000). Efficient initiation of HCV RNA Replication in cell culture. Science 290, […]). These transfected cell lines contain a subgenomic HCV RNA genome that includes (1) the HCV 5′NTR fused to 12 amino acids of the capsid coding region, (2) the neomycin phosphotransferase gene (Neo) as a selectable marker, (3) the internal ribosome entry site (IRES) from encephalomyocarditis virus (EMCV) that directs translation of HCV non-structural proteins (variously NS2 or NS3 to NS5B), and (4) the 3′ NTR. Replicon-containing cells autonomously and persistently replicate HCV RNA that can be measured quantitatively by real-time qPCR. Therefore, the replicon system facilitates quantitative assessment of anti-viral activity by monitoring changes in HCV RNA replication in a cell-based assay.
HCV replicon-containing cells (Huh7/Clone A) were routinely maintained in Clone A growth medium (DMEM medium [Invitrogen], supplemented with 10% Fetal Bovine Serum, 1% Non Essential Amino Acids and 1 g/L G418). Test compounds were dissolved in dimethylsulfoxide (DMSO) to make 200× stock solutions for all doses prior to treatment.
For the HCV replicon assay, Huh7/Clone A cells were trypsinized from culture flasks, seeded in 1 ml of Clone A growth medium without G418 at 4×10^4 cells per well in 24-well plates and incubated at 37° C. in a humidified CO2 (5%) incubator overnight. Following overnight incubation, compound solutions were added into wells in the same volume (5 μl of 200× compound stock per well) to give a final DMSO concentration of 0.5%. Three wells on each plate supplemented with 5 μl of DMSO served as untreated controls. […]
Total RNA eluted in 130 μl of RNase-free dH2O was quantitated by the RiboGreen Assay according to the supplier's protocol (Molecular Probe). […] RNA samples in the black microplate were mixed with 95 μl of diluted RiboGreen reagent (1:250 dilution in TE buffer) and sample fluorescence was measured using a fluorescence microplate reader at standard fluorescein wavelengths (excitation ˜480 nm, emission ˜520 nm). […]
TaqMan quantitative PCR (RT-qPCR) was used to quantitate the amount of HCV replicon RNA in each sample. […]

[2] = target: recombinant human cathepsin S (Homo sapiens, UniProt P25774); assay: Cathepsin S enzyme activity assay; type: biochemical; details: 10 uM Z-Leu-Arg-AMC, pH 4.5, 25° C.
Chain of recombinant human cathepsin S (P25774 115-331): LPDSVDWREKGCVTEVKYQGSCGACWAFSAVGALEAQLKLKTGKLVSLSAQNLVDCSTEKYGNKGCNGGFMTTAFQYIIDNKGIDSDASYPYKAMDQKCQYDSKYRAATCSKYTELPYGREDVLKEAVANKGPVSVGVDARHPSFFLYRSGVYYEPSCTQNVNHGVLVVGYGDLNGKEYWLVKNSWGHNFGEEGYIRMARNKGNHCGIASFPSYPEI
Method: The cysteine protease inhibitor E-64 is assayed in parallel as a positive control.
Human recombinant cathepsin S is incubated with compounds or vehicle (final concentration=1% DMSO vehicle) in the presence of peptide substrate which is 10 uM Z-Leu-Arg-AMC. Compounds are preincubated with the enzyme for 15 minutes at 25° C. and the reaction started by the addition of substrate. Incubation with substrate proceeds for 30 minutes at 25° C. Incubation buffer is 20 mM CH3COONa, pH 4.5, 2.5 mM DTT, 0.05 M NaCl. Cathepsin S-mediated substrate cleavage is quantified using spectofluorimetric quantitation of AMC.

[3] = recombinant human cathepsin S, read-out: Cathepsin S IC50
[4] = Cathepsin S IC50, recombinant human cathepsin S

| IC50 [2, 3] [nM] | SMILES | inhibition of HCV replicon RNA [1] [%] | IC50 [2, 4] [nM] |
| --- | --- | --- | --- |
|  | CCC[C@H](NC(=O)[C@@H]1[C@H]2CCC[C@H]2CN1C(=O)[C@@H](NC(C(NC(=O)c1cnccn1)C1CCCCC1)C(F)(F)F)C(C)(C)C)C(=O)C(=O)NC1CC1 (single isomer, unassigned) [Formula I isomer B] | 33 | 0.6 |
|  | CCC[C@H](NC(=O)[C@@H]1[C@H]2CCC[C@H]2CN1C(=O)[C@@H](NC(C(NC(=O)c1cnccn1)C1CCCCC1)C(F)(F)F)C(C)(C)C)C(=O)C(=O)NC1CC1 (single isomer, unassigned) [Formula I isomer C] | 34 | 2 |
|  | CCC[C@H](NC(=O)[C@@H]1[C@H]2CCC[C@H]2CN1C(=O)[C@@H](NC(C(NC(=O)c1cnccn1)C1CCCCC1)C(F)(F)F)C(C)(C)C)C(=O)C(=O)NC1CC1 (single isomer, unassigned) [Formula I isomer D] | 29 | 0.6 |
| 1.8 | CCC[C@H](NC(=O)[C@@H]1[C@H]2CCC[C@H]2CN1C(=O)[C@@H](NC(=O)[C@@H](NC(c1cnccn1)C(F)(F)F)C1CCCCC1)C(C)(C)C)C(=O)C(=O)NC1CC1 (single isomer, unassigned) [Formula I isomer E] |  |  |
| 1.4 | CCC[C@H](NC(=O)[C@@H]1[C@H]2CCC[C@H]2CN1C(=O)[C@@H](NC(=O)[C@@H](NC(c1cnccn1)C(F)(F)F)C1CCCCC1)C(C)(C)C)C(=O)C(=O)NC1CC1 (single isomer, unassigned) [Formula I isomer F] |  |  |

| SMILES | IC50 [2, 3] [nM] | inhibition of HCV replicon RNA [1] [%] | IC50 [2, 4] [nM] |
| --- | --- | --- | --- |
| CCC[C@H](NC(=O)[C@@H]1[C@H]2CCC[C@H]2CN1C(=O)[C@@H](NC(C(NC(=O)c1cnccn1)C1CCCCC1)C(F)(F)F)C(C)(C)C)C(=O)C(=O)NC1CC1 (single isomer, unassigned) [Formula I isomer A] | 4.1 | 41 |  |

Reference: patent US8106059B2, “Substituted pyrazines that inhibit protease cathepsin S and HCV replication” (ViroBay, Inc., priority 2007, dated 2012)
